The record followed here is EP0199190A2, “Separating element for separating solid particles, suspended in a gaseous current, by centrifugal force in a cylindrical whirl chamber” (Anton Piller GmbH & Co. KG, priority 1985, dated 1986).

A short description of data set [1]: acute toxicity in the mouse, orally and intravenously. The note with it: in vivo. How it is done: (§1) As already stated, the compounds according to the invention show a marked antiplatelet aggregation activity. Moreover, their toxicity is very low. For example, the acute toxicity of the salt above referred by LM-PT bisulfate, was evaluated in the mouse orally and intravenously. The LD50 were about 400 mg/kg and about 100 mg/kg, respectively. The DPPV (disaggregating power percentage value) was evaluated for LM-PT bisulfate, by the ADP induced aggregation test ex vivo in the rat, orally. For a single dose of 100 mg/kg, the DPPV was 92-96%.

The subject of data set [2] is ADP induced aggregation. The data set can be described thus: ADP induced aggregation test ex vivo in the rat, orally. The note with it: single dose of 100 mg/kg. How it is done: as §1

Usually LD50 stands for the dose at which mortality reaches 50%. Regarding `Cn1cnc2c1c(=O)n(CCCCC(=O)CN1CCc3sccc3C1)c(=O)n2C` [LM-PT bisulfate, N-[2-Reto-6-(3,7-dimethylxanthine-1-yl)hexyl]-4,5,6,7-tetrahydro-thieno[3,2-c]pyridine], the LD50 in data set [1] (iv, intravenously) was approximately 100 mg/kg; in data set [1] (po, orally), approximately 400 mg/kg. Moreover, in data set [2], the “DPPV (disaggregating power percentage value)” value is recorded as 92-96%.
